US20080260716A1, “Method and Composition for High Level Disinfection Employing Quaternary Ammonium Compounds” (priority 2004, published 2008)
Where two headings read alike, the source gives them in different places.

Key:
[1] = tested on: Mycobacterium terrae, B. subtilis, C. sporogens; design: key: satisfies the FDA requirement for high level disinfection (“HLD”); fails to do so (“F”)
C. sporogens spores = assay: AOAC sporicidal test, kill time; format: cell-based; details: for C. sporogens (no kill): 48 hrs
[2] = Table 3 Prior art, 0.25% QUAT, 25° C.
[3] = Table 6 unnumbered test, 2% QUAT + 0.2% Protease (Savinase 16 L), 25° C. + 1% borax
[4] = test 3.4, 0.25% QUAT, 62° C. + ultrasound
[5] = test 4.1, 2% QUAT, 25° C. + 1% borax
[6] = test 4.2, 5% QUAT, 25° C. + 1% borax
[7] = test 4.3, 1% QUAT, 40° C. + 1% borax
[8] = test 4.4, 2% QUAT, 40° C. + 1% borax
[9] = test 4.5, 5% QUAT, 40° C. + 1% borax
[10] = test 4.6, 2% QUAT, 50° C. + 1% borax
[11] = test 4.7, 5% QUAT, 50° C. + 1% borax
[12] = test 5.2, 2% QUAT, 40° C. + ultrasound 10 min each hour
[13] = test 5.3, 5% QUAT, 40° C. + ultrasound 10 min each hour
[14] = test 5.4, 1% QUAT, 40° C. + ultrasound 10 min each hour
[15] = test 5.5, 2% QUAT + 1% borax, 40° C. + ultrasound 10 min each hour
[16] = test 5.6, 5% QUAT + 1% borax, 40° C. + ultrasound 10 min each hour
[17] = test 5.7, 2% QUAT + 1% borax + Protease, 40° C. + ultrasound 10 min each hour
[18] = test 6.1, 2% QUAT + 0.2% Protease (Savinase 16 L), 25° C.
[19] = test 6.2, 2% QUAT + 0.2% Protease (Savinase 16 L), 40° C.
[20] = test 6.3, 2% QUAT + 0.2% Protease (Savinase 16 L), 40° C. + 1% borax
[21] = test 6.4, 2% QUAT + 0.2% Protease (Savinase 16 L), 50° C.
[22] = test 6.5, 2% QUAT + 0.2% Protease (Savinase 16 L), 50° C. + 1% borax
[23] = test 6.6, 2% QUAT + 0.2% Protease (Savinase 16 L), 40° C. + ultrasound 10 min each hour + 1% borax
[24] = test 6.7, 2% QUAT + 1% borax + Protease, 40° C. + ultrasound 10 min each hour

benzalkonium chloride [QUAT]
HLD Or F [1, 2]: F
HLD Or F [1, 3]: F
HLD or F ([1]; test 1.1, 0.025% QUAT, 25° C.): F
HLD or F ([1]; test 1.2, 0.25% QUAT, 25° C.): F
HLD or F ([1]; test 2.1, 5% QUAT, 30° C.): HLD
HLD or F ([1]; test 2.2, 1.0% QUAT, 40° C.): HLD
HLD or F ([1]; test 2.3, 2.0% QUAT, 40° C.): HLD
HLD or F ([1]; test 2.4, 5.0% QUAT, 40° C.): HLD
HLD or F ([1]; test 2.5, 1.0% QUAT, 50° C.): HLD
HLD or F ([1]; test 2.6, 2.0% QUAT, 50° C.): HLD
HLD or F ([1]; test 2.7, 5.0% QUAT, 50° C.): HLD
HLD or F ([1]; test 2.8, 1.0% QUAT, 80° C.): HLD
HLD Or F ([1]; test 3.1, 0.25% QUAT, 40° C.): F
HLD Or F ([1]; test 3.2, 0.25% QUAT, 50° C.): F
HLD Or F ([1]; test 3.3, 0.25% QUAT, 60° C.): F
HLD Or F [1, 4]: F
HLD Or F ([1]; test 3.5, 1.0% QUAT, 25° C.): F
HLD Or F ([1]; test 3.6, 2.0% QUAT, 25° C.): F
HLD Or F ([1]; test 3.7, 5.0% QUAT, 25° C.): F
HLD Or F ([1]; test 3.8, 0.6%, 40° C.): F
HLD Or F ([1]; test 3.9, 0.6% QUAT, 50° C.): F
HLD or F [1, 5]: F
HLD or F [1, 6]: F
HLD or F [1, 7]: HLD
HLD or F [1, 8]: HLD
HLD or F [1, 9]: HLD
HLD or F [1, 10]: HLD
HLD or F [1, 11]: HLD
HLD Or F [1, 12]: HLD
HLD Or F [1, 13]: HLD
HLD Or F [1, 14]: HLD
HLD Or F [1, 15]: HLD
HLD Or F [1, 16]: HLD
HLD Or F [1, 17]: HLD
HLD Or F [1, 18]: F
HLD Or F [1, 19]: HLD
HLD Or F [1, 20]: HLD
HLD Or F [1, 21]: HLD
HLD Or F [1, 22]: HLD
HLD Or F [1, 23]: HLD
HLD Or F [1, 24]: HLD
Kill Time C. sporogens (C. sporogens spores; [2]): >24 h
Kill Time C. sporogens (C. sporogens spores; [3]): >48 h
C. sporogens (no kill) (C. sporogens spores; [3]): (no kill) (“No kill” means less than 2 log reduction from the initial population)
kill time of C. sporogenes (C. sporogens spores; above 1% w/w of quat, 40° C.): less than 2 hours
Kill Time C. sporogens (C. sporogens spores; test 1.1, 0.025% QUAT, 25° C.): >24 h
Kill Time C. sporogens (C. sporogens spores; test 1.2, 0.25% QUAT, 25° C.): >24 h
Kill Time C. sporogens (C. sporogens spores; test 2.1, 5% QUAT, 30° C.): <2 h
Kill Time C. sporogens (C. sporogens spores; test 2.2, 1.0% QUAT, 40° C.): <2 h
Kill Time C. sporogens (C. sporogens spores; test 2.3, 2.0% QUAT, 40° C.): <2 h
Kill Time C. sporogens (C. sporogens spores; test 2.4, 5.0% QUAT, 40° C.): <1 h
Kill Time C. sporogens (C. sporogens spores; test 2.5, 1.0% QUAT, 50° C.): <2 h
Kill Time C. sporogens (C. sporogens spores; test 2.6, 2.0% QUAT, 50° C.): <2 h
Kill Time C. sporogens (C. sporogens spores; test 2.7, 5.0% QUAT, 50° C.): <1 h
Kill Time C. sporogens (C. sporogens spores; test 2.7, 5.0% QUAT, 50° C., listed as quat): less than one hour
Kill Time C. sporogens (C. sporogens spores; test 2.8, 1.0% QUAT, 80° C.): <1 h
Kill Time C. sporogens (C. sporogens spores; test 2.8, 1.0% QUAT, 80° C., listed as quat): less than one hour
Kill Time C. sporogens (C. sporogens spores; test 3.1, 0.25% QUAT, 40° C.): >24 h
Kill Time C. sporogens (C. sporogens spores; test 3.2, 0.25% QUAT, 50° C.): >24 h
Kill Time C. sporogens (C. sporogens spores; test 3.3, 0.25% QUAT, 60° C.): >24 h
Kill Time C. sporogens (C. sporogens spores; [4]): >24 h
Kill Time C. sporogens (C. sporogens spores; test 3.5, 1.0% QUAT, 25° C.): >48 h
C. sporogens (no kill) (C. sporogens spores; test 3.5, 1.0% QUAT, 25° C.): (no kill) (“No kill” means less than 2 log reduction from the initial population)
Kill Time C. sporogens (C. sporogens spores; test 3.6, 2.0% QUAT, 25° C.): >48 h
C. sporogens (no kill) (C. sporogens spores; test 3.6, 2.0% QUAT, 25° C.): (no kill) (“No kill” means less than 2 log reduction from the initial population)
Kill Time C. sporogens (C. sporogens spores; test 3.7, 5.0% QUAT, 25° C.): >48 h
C. sporogens (no kill) (C. sporogens spores; test 3.7, 5.0% QUAT, 25° C.): (no kill) (“No kill” means less than 2 log reduction from the initial population)
Kill Time C. sporogens (C. sporogens spores; test 3.8, 0.6%, 40° C.): >24 h
Kill Time C. sporogens (C. sporogens spores; test 3.9, 0.6% QUAT, 50° C.): <16 h
Kill Time C. sporogens (C. sporogens spores; [5]): >48 h
C. sporogens (no kill) (C. sporogens spores; [5]): (no kill) (“No kill” means less than 2 log reduction from the initial population)
Kill Time C. sporogens (C. sporogens spores; [6]): >48 h
C. sporogens (no kill) (C. sporogens spores; [6]): (no kill) (“No kill” means less than 2 log reduction from the initial population)
Kill Time C. sporogens (C. sporogens spores; [7]): <1 h
Kill Time C. sporogens (C. sporogens spores; [8]): <1 h
Kill Time C. sporogens (C. sporogens spores; [9]): <1 h
Kill Time C. sporogens (C. sporogens spores; [10]): <1 h
Kill Time C. sporogens (C. sporogens spores; [11]): <1 h
Kill Time C. sporogens (C. sporogens spores; test 5.1, 1% QUAT, 40° C. + ultrasound 10 min each hour): <2 h
Kill Time C. sporogens (C. sporogens spores; [12]): <1 h
Kill Time C. sporogens (C. sporogens spores; [13]): <1 h
Kill Time C. sporogens (C. sporogens spores; [14]): <1 h
Kill Time C. sporogens (C. sporogens spores; [15]): <1 h
Kill Time C. sporogens (C. sporogens spores; [16]): <1 h
Kill Time C. sporogens (C. sporogens spores; [17]): <1 h
Kill Time C. sporogens (C. sporogens spores; [18]): >48 h
C. sporogens (no kill) (C. sporogens spores; [18]): (no kill) (“No kill” means less than 2 log reduction from the initial population)
Kill Time C. sporogens (C. sporogens spores; [19]): <1 h
Kill Time C. sporogens (C. sporogens spores; [20]): <1 h
Kill Time C. sporogens (C. sporogens spores; [21]): <1 h
Kill Time C. sporogens (C. sporogens spores; [22]): <1 h
Kill Time C. sporogens (C. sporogens spores; [23]): <1 h
Kill Time C. sporogens (C. sporogens spores; [24]): <1 h
